Assay results taken from US6706663B2, “Herbicidal 3-heterocyclic substituted benzisothiazole and benzisoxazole compounds” (Wyeth, priority 2000, dated 2004).

What was measured:
[1] = test system: TRZAWR (Wheat, Winter, cv Riband); experiment: Postemergence herbicidal evaluation; type: in vivo, Triticum aestivum
Summary of the method: (§1)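 Seedlings grown about two weeks in flats, sprayed, then kept under standard greenhouse care. Rated visually 4–5 weeks after treatment on a 0–9 scale (stand, vigour, malformation, size, chlorosis, overall appearance) relative to untreated control; repeat tests averaged.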

[2] = test system: AMBEL (Ambrosia artemisifolia); experiment: Preemergence herbicidal evaluation; type: in vivo, L.; settings: preemergence, rated 4-5 weeks after treatment
Summary of the method: (§2)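 Visual 0–9 rating versus control (stand, vigor, malformation, size, chlorosis, overall appearance), scored four to five weeks post-treatment. Preemergence spray of aqueous acetone solution onto freshly seeded soil cups; plants grown under conventional greenhouse care.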

[3] = test system: CASOB (Cassia obtusifolia); experiment: Preemergence herbicidal evaluation; type: in vivo, L.; settings: preemergence, rated 4-5 weeks after treatment
Summary of the method: as §2

[4] = test system: CHEAL (Chenopodium album); experiment: Preemergence herbicidal evaluation; type: in vivo, L.; settings: preemergence, rated 4-5 weeks after treatment
Summary of the method: as §2

[5] = test system: MOOVA (Monochoria vaginalis); experiment: Flooded paddy, preemergence weed control; type: in vivo, Presl.; settings: rated 3-4 weeks after treatment, 0-9 rating scale
Summary of the method: (§3)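 Ratings of 0-9 reflect visual comparison with a control for stand, vigor, deformity, size, chlorosis and overall look. Propagules were placed in shallow silt loam (top 0.5 cm) under a continuous 1.5–3 cm flood and grown in the greenhouse.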

[6] = test system: CYPSE (Cyperus serotinus); experiment: Flooded paddy, preemergence weed control; type: in vivo, Rottb.; settings: rated 3-4 weeks after treatment, 0-9 rating scale
Summary of the method: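 Herbicidal effect was scored visually on a 0–9 scale against an untreated control 3–4 weeks after treatment. Compounds were applied preemergence as 50/50 v/v aqueous/acetone mixtures into flood water (1.5–3 cm deep over silt loam), at roughly 0.0080 to 0.1250 kg/ha active ingredient.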

[7] = test system: GLXMAW (Soybean, Williams); experiment: Preemergence herbicidal evaluation; type: in vivo, Glycine max, (L.) Merr. cv Williams; settings: preemergence, rated 4-5 weeks after treatment
ZEAMX (Corn, Field) = experiment: Preemergence herbicidal evaluation; type: in vivo, Zea mays, L.; settings: preemergence, rated 4-5 weeks after treatment
SETVI (Setaria viridis) = experiment: Postemergence herbicidal evaluation; type: in vivo, (L.) Beau
Summary of the method: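 Seedlings grown about two weeks were sprayed with compound in 50/50 acetone/water containing 0.5% TWEEN 20, at about 0.0040 to 1.000 kg/ha via nozzle at 40 psi. Plants were kept under greenhouse conditions and visually rated on a 0-9 scale versus control four to five weeks after treatment; replicate tests averaged.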

[8] = test system: ECHCG (Echinochloa crus-galli); experiment: Postemergence herbicidal evaluation; type: in vivo, (L.) Beau
Summary of the method: as §1

[9] = test system: IPOHE (Ipomoea hederacea); experiment: Preemergence herbicidal evaluation; type: in vivo, (L.) Jacq.; settings: preemergence, rated 4-5 weeks after treatment
[10] = test system: ECHORC (Echinochloa oryzoides); experiment: Flooded paddy, preemergence weed control; type: in vivo, Echinochloa oryzoides (Ard.) Fritsch.; settings: rated 3-4 weeks after treatment, 0-9 rating scale
Summary of the method: as §3

ORYSAT (Rice, Tebonnet) = experiment: Flooded paddy, post-transplant rice tolerance; type: in vivo, Oryza sativa, (L.) Tebonnet; settings: flooded paddy, post-transplant rice, rated 3-4 weeks after treatment, 0-9 rating scale
Summary of the method: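 Steps: transplant two ten-day-old seedlings into silt loam; flood to 1.5-3 cm above soil; apply herbicide post-transplant; maintain water on greenhouse benches; rate stand, vigor, malformation, size and chlorosis on a 0-9 visual scale versus control.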

[11] = test system: ABUTH (Abutilon theophrasti); experiment: Preemergence herbicidal evaluation; type: in vivo, Medic.; settings: preemergence, rated 4-5 weeks after treatment
CYPIR (Cyperus iria) = experiment: Flooded paddy, preemergence weed control; type: in vivo; settings: rated 3-4 weeks after treatment, 0-9 rating scale
Summary of the method: as §3

[12] = test system: SAGPY (Sagittaria pygmaea); experiment: Flooded paddy, preemergence weed control; type: in vivo, L.; settings: rated 3-4 weeks after treatment, 0-9 rating scale
Summary of the method: as §3

In the case of `CN(C(=O)c1nsc2ccc(-n3c(=O)cc(C(F)(F)F)n(C)c3=O)cc12)c1ccc(Cl)cc1` [Compound 18, 1,2-benzisothiazole-3-carboxanilide, 4′-chloro-5-[3,6-dihydro-3-methyl-2,6-dioxo-4-(trifluoromethyl)-1(2H)-pyrimidinyl]-N-methyl-], the “Postemergence herbicidal rating, TRZAWR” value ([1]; rate 0.0320 kg/ha) is reported as 3.0, the “Postemergence herbicidal rating, TRZAWR” value ([1]; rate 0.0620 kg/ha) is reported as 4.0 and the “Postemergence herbicidal rating, TRZAWR” value ([1]; rate 0.1250 kg/ha) is reported as 5.0. The “Postemergence herbicidal rating, TRZAWR” value ([1]; rate 0.2500 kg/ha) was 6.0, the “AMBEL preemergence herbicidal rating” value ([2]; Rate 0.0620 kg/ha) was 7.0 and the “AMBEL preemergence herbicidal rating” value ([2]; Rate 0.1250 kg/ha) was 9.0. The “AMBEL preemergence herbicidal rating” value ([2]; Rate 0.2500 kg/ha) was 9.0, the “CASOB preemergence herbicidal rating” value ([3]; Rate 0.0620 kg/ha) was 0.0 and the “CASOB preemergence herbicidal rating” value ([3]; Rate 0.1250 kg/ha) was 1.0. The “CASOB preemergence herbicidal rating” value ([3]; Rate 0.2500 kg/ha) was 1.0, the “CHEAL preemergence herbicidal rating” value ([4]; Rate 0.0620 kg/ha) was 9.0 and the “CHEAL preemergence herbicidal rating” value ([4]; Rate 0.1250 kg/ha) was 9.0. For the same compound, the “CHEAL preemergence herbicidal rating” value ([4]; Rate 0.2500 kg/ha) was 9.0, the “herbicidal rating, MOOVA” value ([5]; rate 0.0080 kg/ha) was 0.0 and the “herbicidal rating, MOOVA” value ([5]; rate 0.0320 kg/ha) was 9.0. The “herbicidal rating, MOOVA” value ([5]; rate 0.1250 kg/ha) was 9.0, the “herbicidal rating, CYPSE” value ([6]; rate 0.0320 kg/ha) was 4.0 and the “herbicidal rating, CYPSE” value ([6]; rate 0.1250 kg/ha) was 4.0. The “GLXMAW preemergence herbicidal rating” value ([7]; Rate 0.0620 kg/ha) was 0.0, the “GLXMAW preemergence herbicidal rating” value ([7]; Rate 0.1250 kg/ha) was 4.0 and the “GLXMAW preemergence herbicidal rating” value ([7]; Rate 0.2500 kg/ha) was 5.0. For the same compound, the “ZEAMX preemergence herbicidal rating” value (ZEAMX (Corn, Field); Rate 0.0620 kg/ha) was 7.0, the “ZEAMX preemergence herbicidal rating” value (ZEAMX (Corn, Field); Rate 0.1250 kg/ha) was 8.0 and the “ZEAMX preemergence herbicidal rating” value (ZEAMX (Corn, Field); Rate 0.2500 kg/ha) was 8.0. For the same compound, the “Postemergence herbicidal rating, SETVI” value (SETVI (Setaria viridis); rate 0.0320 kg/ha) was 0.0, the “Postemergence herbicidal rating, SETVI” value (SETVI (Setaria viridis); rate 0.0620 kg/ha) was 0.0 and the “Postemergence herbicidal rating, SETVI” value (SETVI (Setaria viridis); rate 0.1250 kg/ha) was 5.0. The “Postemergence herbicidal rating, SETVI” value (SETVI (Setaria viridis); rate 0.2500 kg/ha) was 9.0, the “Postemergence herbicidal rating, ECHCG” value ([8]; rate 0.0320 kg/ha) was 0.0 and the “Postemergence herbicidal rating, ECHCG” value ([8]; rate 0.0620 kg/ha) was 0.0. For the same compound, the “Postemergence herbicidal rating, ECHCG” value ([8]; rate 0.1250 kg/ha) was 0.0, the “Postemergence herbicidal rating, ECHCG” value ([8]; rate 0.2500 kg/ha) was 5.0 and the “IPOHE preemergence herbicidal rating” value ([9]; Rate 0.0620 kg/ha) was 3.0. For the same compound, the “IPOHE preemergence herbicidal rating” value ([9]; Rate 0.1250 kg/ha) was 9.0, the “IPOHE preemergence herbicidal rating” value ([9]; Rate 0.2500 kg/ha) was 9.0 and the “herbicidal rating, ECHORC” value ([10]; rate 0.0080 kg/ha) was 0.0. The “herbicidal rating, ECHORC” value ([10]; rate 0.0320 kg/ha) was 6.0, the “herbicidal rating, ECHORC” value ([10]; rate 0.1250 kg/ha) was 9.0 and the “herbicidal rating, ORYSAT (rice tolerance)” value (“herbicidal rating, ORYSAT” below) (ORYSAT (Rice, Tebonnet); rate 0.0080 kg/ha) was 0.0. For the same compound, the “herbicidal rating, ORYSAT” value (ORYSAT (Rice, Tebonnet); rate 0.0320 kg/ha) was 1.5, the “herbicidal rating, ORYSAT” value (ORYSAT (Rice, Tebonnet); rate 0.1250 kg/ha) was 5.0 and the “ABUTH preemergence herbicidal rating” value ([11]; Rate 0.0620 kg/ha) was 9.0. For the same compound, the “ABUTH preemergence herbicidal rating” value ([11]; Rate 0.1250 kg/ha) was 9.0, the “ABUTH preemergence herbicidal rating” value ([11]; Rate 0.2500 kg/ha) was 9.0 and the “herbicidal rating, CYPIR” value (CYPIR (Cyperus iria); rate 0.0080 kg/ha) was 0.0. The “herbicidal rating, CYPIR” value (CYPIR (Cyperus iria); rate 0.0320 kg/ha) was 6.5, the “herbicidal rating, CYPIR” value (CYPIR (Cyperus iria); rate 0.1250 kg/ha) was 7.5 and the “herbicidal rating, SAGPY” value ([12]; rate 0.0080 kg/ha) was 0.0. For the same compound, the “herbicidal rating, SAGPY” value ([12]; rate 0.0320 kg/ha) was 1.5 and the “herbicidal rating, SAGPY” value ([12]; rate 0.1250 kg/ha) was 5.0.
